# Laboratory results taken from patent US11434221B2, “Pyrazine-4-carbamate or -urea derivatives as herbicides” (Syngenta Participations AG, priority 2017, dated 2022).
# System: Alopecurus myosuroides (ALOMY)
# Experiment: Pre-emergence herbicidal activity, glasshouse pot test
# Format: in vivo
# Parameters: key: 5=total damage to plant; 0=no damage to plant
# Conditions: Rate 1000 g/ha; sprayed one day after sowing; evaluated after 13 days
# Protocol: (§1) Seeds of a variety of test species were sown in standard soil in pots: Triticum aestivium (TRZAW), Avena fatua (AVEFA), Alopecurus myosuroides (ALOMY), Echinochloa crus-galli (ECHCG), Lolium perenne (LOLPE), and Setaria faberi (SETFA). After cultivation for one day (pre-emergence) under controlled conditions in a glasshouse (at 24/16° C., day/night; 14 hours light; 65% humidity), the plants were sprayed with an aqueous spray solution derived from the formulation of the technical active ingredient in acetone/water (50:50) solution containing 0.5% Tween 20 (polyoxyethelyene sorbitan monolaurate, CAS RN 9005-64-5). The test plants were then grown in a glasshouse under controlled conditions (at 24/16° C., day/night; 14 hours light; 65% humidity) and watered twice daily. After 13 days, the test was evaluated (5=total damage to plant; 0=no damage to plant).
row,Compound,"Control of weed species after pre-emergence application, ALOMY (damage score 0-5)"
1,COc1nc(-c2cncc(F)c2)cnc1N(C(=O)OC(C)(C)C)C(=O)OC(C)(C)C [Compound H6],0
2,COc1nc(-c2cncc(F)c2)cnc1NC(=O)OC(C)(C)C [Compound H7],0
3,CC(C)(C)OC(=O)N(C(=O)OC(C)(C)C)c1ncc(-c2cncc(F)c2)nc1OCc1ccccc1 [Compound H8],0
4,Cc1nc(-c2cncc(F)c2)cnc1NC(=O)OC(C)(C)C [Compound H17],0

# System: Avena fatua (AVEFA)
# Experiment: as above
# Format: in vivo
# Parameters: key: 5=total damage to plant; 0=no damage to plant
# Conditions: Rate 1000 g/ha; sprayed one day after sowing; evaluated after 13 days
# Protocol: as §1
row,Compound,"Control of weed species after pre-emergence application, AVEFA (damage score 0-5)"
1,COc1nc(-c2cncc(F)c2)cnc1N(C(=O)OC(C)(C)C)C(=O)OC(C)(C)C [Compound H6],1
2,COc1nc(-c2cncc(F)c2)cnc1NC(=O)OC(C)(C)C [Compound H7],1
3,CC(C)(C)OC(=O)N(C(=O)OC(C)(C)C)c1ncc(-c2cncc(F)c2)nc1OCc1ccccc1 [Compound H8],0
4,Cc1nc(-c2cncc(F)c2)cnc1NC(=O)OC(C)(C)C [Compound H17],2

# System: Echinochloa crus-galli (ECHCG)
# Experiment: as above
# Format: in vivo
# Parameters: key: 5=total damage to plant; 0=no damage to plant
# Conditions: Rate 1000 g/ha; sprayed one day after sowing; evaluated after 13 days
# Protocol: as §1
row,Compound,"Control of weed species after pre-emergence application, ECHCG (damage score 0-5)"
1,COc1nc(-c2cncc(F)c2)cnc1N(C(=O)OC(C)(C)C)C(=O)OC(C)(C)C [Compound H6],3
2,COc1nc(-c2cncc(F)c2)cnc1NC(=O)OC(C)(C)C [Compound H7],3
3,CC(C)(C)OC(=O)N(C(=O)OC(C)(C)C)c1ncc(-c2cncc(F)c2)nc1OCc1ccccc1 [Compound H8],1
4,Cc1nc(-c2cncc(F)c2)cnc1NC(=O)OC(C)(C)C [Compound H17],4

# System: Lolium perenne (LOLPE)
# Experiment: as above
# Format: in vivo
# Parameters: key: 5=total damage to plant; 0=no damage to plant
# Conditions: Rate 1000 g/ha; sprayed one day after sowing; evaluated after 13 days
# Protocol: as §1
row,Compound,"Control of weed species after pre-emergence application, LOLPE (damage score 0-5)"
1,COc1nc(-c2cncc(F)c2)cnc1N(C(=O)OC(C)(C)C)C(=O)OC(C)(C)C [Compound H6],0
2,COc1nc(-c2cncc(F)c2)cnc1NC(=O)OC(C)(C)C [Compound H7],0
3,CC(C)(C)OC(=O)N(C(=O)OC(C)(C)C)c1ncc(-c2cncc(F)c2)nc1OCc1ccccc1 [Compound H8],1
4,Cc1nc(-c2cncc(F)c2)cnc1NC(=O)OC(C)(C)C [Compound H17],3

# System: Setaria faberi (SETFA)
# Experiment: as above
# Format: in vivo
# Parameters: key: 5=total damage to plant; 0=no damage to plant
# Conditions: Rate 1000 g/ha; sprayed one day after sowing; evaluated after 13 days
# Protocol: as §1
row,Compound,"Control of weed species after pre-emergence application, SETFA (damage score 0-5)"
1,COc1nc(-c2cncc(F)c2)cnc1N(C(=O)OC(C)(C)C)C(=O)OC(C)(C)C [Compound H6],4
2,COc1nc(-c2cncc(F)c2)cnc1NC(=O)OC(C)(C)C [Compound H7],5
3,CC(C)(C)OC(=O)N(C(=O)OC(C)(C)C)c1ncc(-c2cncc(F)c2)nc1OCc1ccccc1 [Compound H8],2
4,Cc1nc(-c2cncc(F)c2)cnc1NC(=O)OC(C)(C)C [Compound H17],4

# System: Triticum aestivium (TRZAW)
# Experiment: as above
# Format: in vivo
# Parameters: key: 5=total damage to plant; 0=no damage to plant
# Conditions: Rate 1000 g/ha; sprayed one day after sowing; evaluated after 13 days
# Protocol: as §1
row,Compound,"Control of weed species after pre-emergence application, TRAZW (damage score 0-5)"
1,COc1nc(-c2cncc(F)c2)cnc1N(C(=O)OC(C)(C)C)C(=O)OC(C)(C)C [Compound H6],1
2,COc1nc(-c2cncc(F)c2)cnc1NC(=O)OC(C)(C)C [Compound H7],0
3,CC(C)(C)OC(=O)N(C(=O)OC(C)(C)C)c1ncc(-c2cncc(F)c2)nc1OCc1ccccc1 [Compound H8],0
4,Cc1nc(-c2cncc(F)c2)cnc1NC(=O)OC(C)(C)C [Compound H17],0

# System: Alopecurus myosuroides (ALOMY)
# Experiment: Post-emergence herbicidal activity, glasshouse pot test
# Format: in vivo
# Parameters: key: 5=total damage to plant; 0=no damage to plant
# Conditions: Rate 1000 g/ha; sprayed after 8 days cultivation; evaluated after 13 days
# Protocol: (§2) Seeds of a variety of test species were sown in standard soil in pots: Triticum aestivium (TRZAW), Avena fatua (AVEFA), Alopecurus myosuroides (ALOMY), Echinochloa crus-galli (ECHCG), Lolium perenne (LOLPE), and Setaria faberi (SETFA). After 8 days cultivation (post-emergence) under controlled conditions in a glasshouse (at 24/16° C., day/night; 14 hours light; 65% humidity), the plants were sprayed with an aqueous spray solution derived from the formulation of the technical active ingredient in acetone/water (50:50) solution containing 0.5% Tween 20 (polyoxyethelyene sorbitan monolaurate, CAS RN 9005-64-5). The test plants were then grown in a glasshouse under controlled conditions (at 24/16° C., day/night; 14 hours light; 65% humidity) and watered twice daily. After 13 days, the test was evaluated (5=total damage to plant; 0=no damage to plant).
row,Compound,"Control of weed species after post-emergence application, ALOMY (damage score 0-5)"
1,COc1nc(-c2cncc(F)c2)cnc1N(C(=O)OC(C)(C)C)C(=O)OC(C)(C)C [Compound H6],0
2,COc1nc(-c2cncc(F)c2)cnc1NC(=O)OC(C)(C)C [Compound H7],0
3,CC(C)(C)OC(=O)N(C(=O)OC(C)(C)C)c1ncc(-c2cncc(F)c2)nc1OCc1ccccc1 [Compound H8],0
4,Cc1nc(-c2cncc(F)c2)cnc1NC(=O)OC(C)(C)C [Compound H17],2

# System: Avena fatua (AVEFA)
# Experiment: as above
# Format: in vivo
# Parameters: key: 5=total damage to plant; 0=no damage to plant
# Conditions: Rate 1000 g/ha; sprayed after 8 days cultivation; evaluated after 13 days
# Protocol: as §2
row,Compound,"Control of weed species after post-emergence application, AVEFA (damage score 0-5)"
1,COc1nc(-c2cncc(F)c2)cnc1N(C(=O)OC(C)(C)C)C(=O)OC(C)(C)C [Compound H6],2
2,COc1nc(-c2cncc(F)c2)cnc1NC(=O)OC(C)(C)C [Compound H7],3
3,CC(C)(C)OC(=O)N(C(=O)OC(C)(C)C)c1ncc(-c2cncc(F)c2)nc1OCc1ccccc1 [Compound H8],1
4,Cc1nc(-c2cncc(F)c2)cnc1NC(=O)OC(C)(C)C [Compound H17],3

# System: Echinochloa crus-galli (ECHCG)
# Experiment: as above
# Format: in vivo
# Parameters: key: 5=total damage to plant; 0=no damage to plant
# Conditions: Rate 1000 g/ha; sprayed after 8 days cultivation; evaluated after 13 days
# Protocol: as §2
row,Compound,"Control of weed species after post-emergence application, ECHCG (damage score 0-5)"
1,COc1nc(-c2cncc(F)c2)cnc1N(C(=O)OC(C)(C)C)C(=O)OC(C)(C)C [Compound H6],3
2,COc1nc(-c2cncc(F)c2)cnc1NC(=O)OC(C)(C)C [Compound H7],5
3,CC(C)(C)OC(=O)N(C(=O)OC(C)(C)C)c1ncc(-c2cncc(F)c2)nc1OCc1ccccc1 [Compound H8],1
4,Cc1nc(-c2cncc(F)c2)cnc1NC(=O)OC(C)(C)C [Compound H17],4

# System: Lolium perenne (LOLPE)
# Experiment: as above
# Format: in vivo
# Parameters: key: 5=total damage to plant; 0=no damage to plant
# Conditions: Rate 1000 g/ha; sprayed after 8 days cultivation; evaluated after 13 days
# Protocol: as §2
row,Compound,"Control of weed species after post-emergence application, LOLPE (damage score 0-5)"
1,COc1nc(-c2cncc(F)c2)cnc1N(C(=O)OC(C)(C)C)C(=O)OC(C)(C)C [Compound H6],1
2,COc1nc(-c2cncc(F)c2)cnc1NC(=O)OC(C)(C)C [Compound H7],2
3,CC(C)(C)OC(=O)N(C(=O)OC(C)(C)C)c1ncc(-c2cncc(F)c2)nc1OCc1ccccc1 [Compound H8],0
4,Cc1nc(-c2cncc(F)c2)cnc1NC(=O)OC(C)(C)C [Compound H17],3

# System: Setaria faberi (SETFA)
# Experiment: as above
# Format: in vivo
# Parameters: key: 5=total damage to plant; 0=no damage to plant
# Conditions: Rate 1000 g/ha; sprayed after 8 days cultivation; evaluated after 13 days
# Protocol: as §2
row,Compound,"Control of weed species after post-emergence application, SETFA (damage score 0-5)"
1,COc1nc(-c2cncc(F)c2)cnc1N(C(=O)OC(C)(C)C)C(=O)OC(C)(C)C [Compound H6],4
2,COc1nc(-c2cncc(F)c2)cnc1NC(=O)OC(C)(C)C [Compound H7],5
3,CC(C)(C)OC(=O)N(C(=O)OC(C)(C)C)c1ncc(-c2cncc(F)c2)nc1OCc1ccccc1 [Compound H8],1

# System: Triticum aestivium (TRZAW)
# Experiment: as above
# Format: in vivo
# Parameters: key: 5=total damage to plant; 0=no damage to plant
# Conditions: Rate 1000 g/ha; sprayed after 8 days cultivation; evaluated after 13 days
# Protocol: as §2
row,Compound,"Control of weed species after post-emergence application, TRAZW (damage score 0-5)"
1,COc1nc(-c2cncc(F)c2)cnc1N(C(=O)OC(C)(C)C)C(=O)OC(C)(C)C [Compound H6],1
2,COc1nc(-c2cncc(F)c2)cnc1NC(=O)OC(C)(C)C [Compound H7],1
3,CC(C)(C)OC(=O)N(C(=O)OC(C)(C)C)c1ncc(-c2cncc(F)c2)nc1OCc1ccccc1 [Compound H8],0
4,Cc1nc(-c2cncc(F)c2)cnc1NC(=O)OC(C)(C)C [Compound H17],0
